From patent US20260250257A1, “ANTIBACTERIAL AND SYNERGISTIC ACTIVE COMPOUND AND USE THEREOF” (EAST CHINA UNIVERSITY OF SCIENCE AND TECHNOLOGY, priority 2023, published 2026)
Values after ≈ are worked out from the molar mass of the structure shown.

Experiments:
Assay type in all cases: cell-based
[1] = test system: ATCC9027 strain (Pseudomonas aeruginosa); test: Checkerboard antibacterial synergistic activity test with polymyxin E (FIC); design: key: FIC≤0.5 synergy; 0.5–1 additive; 1–2 indifferent; ≥2 antagonism; details: combined with polymyxin E
Summary of the method: (§1)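 First, two-fold series of polymyxin E (16–0.015 μg/ml) and compound (256–4 μg/ml) were made in MH broth. Next, combinations went into a 96-well grid, bacterial liquid was added, and plates sat at 37° C. for 16 h. Finally, FIC was computed and classed (≤0.5 synergistic).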

[2] = test system: ATCC13883 strain (Klebsiella pneumoniae); test: as above; design: key: FIC≤0.5 synergy; 0.5–1 additive; 1–2 indifferent; ≥2 antagonism; details: combined with polymyxin E
Summary of the method: as §1

[3] = test system: ATCC25922 strain (Escherichia coli); test: as above; design: key: FIC≤0.5 synergy; 0.5–1 additive; 1–2 indifferent; ≥2 antagonism; details: combined with polymyxin E
Summary of the method: as §1

[4] = test system: ATCC19606 strain (Acinetobacter baumannii); test: as above; design: key: FIC≤0.5 synergy; 0.5–1 additive; 1–2 indifferent; ≥2 antagonism; details: combined with polymyxin E
Summary of the method: as §1

[5] = test system: ATCC9027 strain (Pseudomonas aeruginosa); test: Broth microdilution, antibacterial activity of the compound used alone; details: for MIC: read-out: Antibacterial activity of the compound of Formula I, ATCC9027
From the text: (§2) The broth microdilution method was used to test the antibacterial effects of the compounds of the present invention against various Gram-negative bacterial strains when used alone.

[6] = test system: ATCC13883 strain (Klebsiella pneumoniae); test: as above; details: for MIC: read-out: Antibacterial activity of the compound of Formula I, ATCC13883
From the text: as §2

[7] = test system: ATCC25922 strain (Escherichia coli); test: as above; details: for MIC: read-out: Antibacterial activity of the compound of Formula I, ATCC25922
From the text: as §2

[8] = test system: ATCC19606 strain (Acinetobacter baumannii); test: as above; details: for MIC: read-out: Antibacterial activity of the compound of Formula I, ATCC19606
From the text: as §2

MIC [5]	MIC [6]	MIC [7]	MIC [8]	SMILES	Synergistic activity (FIC value) ATCC9027 [1]	Synergistic activity (FIC value) ATCC13883 [2]	Synergistic activity (FIC value) ATCC25922 [3]	Synergistic activity (FIC value) ATCC19606 [4]	Antibacterial activity of the compound of Formula I, ATCC9027 [5]	Antibacterial activity of the compound of Formula I, ATCC13883 [6]	Antibacterial activity of the compound of Formula I, ATCC25922 [7]	Antibacterial activity of the compound of Formula I, ATCC19606 [8]
				C[S+]([O-])c1cccc(-c2csc(N=C(N)N)n2)c1 (centres unmarked) [Compound I-27]	1.25	1.25	1.25	0.51	256 µg/mL	256 µg/mL	256 µg/mL	256 µg/mL
				Cc1sc(N=C(N)N)nc1-c1ccccc1Oc1ccccn1 [Compound I-101]	0.52	1.25	1.25	0.25	256 µg/mL	256 µg/mL	256 µg/mL	256 µg/mL
				CSc1cc2ccc(C)cn2c1-c1nc(N=C(N)N)sc1C [Compound I-126]	0.28	0.13	0.2	0.04	256 µg/mL	256 µg/mL	256 µg/mL	256 µg/mL
				CSc1cc2cccc(C)n2c1-c1csc(N=C2NCCCN2)n1 [Compound I-194]	0.63	1.25	0.5	1.25	64 µg/mL	128 µg/mL	128 µg/mL	256 µg/mL
				CC(C)c1cccc(-c2c[nH]c(N=C(N)N)n2)c1 [Compound I-16]	0.63	0.25	0.5	0.3	256 µg/mL	256 µg/mL	256 µg/mL	256 µg/mL
256 µg/mL (≈ 991 µM)	256 µg/mL (≈ 991 µM)	256 µg/mL (≈ 991 µM)	256 µg/mL (≈ 991 µM)	NC(N)=Nc1nc(-c2cc3ccccc3o2)cs1 [Compound I-112]	0.52	1.25	1.25	0.51				
16 µg/mL (≈ 57.9 µM)	64 µg/mL (≈ 232 µM)	32 µg/mL (≈ 116 µM)	256 µg/mL (≈ 926 µM)	NC(N)=Nc1nc(C2CC3CC4CC3CC2C4)cs1 (centres unmarked) [Compound I-117]	1.25	0.25	0.63	0.5				
				FC(F)(F)c1cc(-c2nc(N=C3NCCCN3)sc2Cl)ccc1Cl [Compound I-186]	1.25	0.19	0.52	0.13	256 µg/mL	256 µg/mL	256 µg/mL	256 µg/mL
				NC(N)=Nc1nc(-c2ccccc2-c2ccccc2)co1 [Compound I-73]	0.52	1.25	1.25	0.25	256 µg/mL	256 µg/mL	256 µg/mL	256 µg/mL
				CCc1sc(N=C2NCCCN2)nc1-c1c(SC)cc2ccc(C)cn12 [Compound I-193]	1.25	1.25	0.53	1.25	256 µg/mL	256 µg/mL	256 µg/mL	256 µg/mL
				CSc1ccccc1-c1csc(N=C(N)N)n1 [Compound I-26]	1.25	1.25	0.63	0.5	256 µg/mL	256 µg/mL	256 µg/mL	256 µg/mL
				CSc1cc2cccc(C)n2c1-c1nc(N=C(N)N)sc1Cl [Compound I-127]	0.06	0.09	0.14	0.31	64 µg/mL	128 µg/mL	128 µg/mL	256 µg/mL
				CSc1cc2cc(C)cc(C)n2c1-c1nc(N=C(N)N)oc1C [Compound I-128]	0.28	0.16	0.18	0.03	256 µg/mL	256 µg/mL	256 µg/mL	256 µg/mL
				CC(C)=CCOc1cc(-c2nc(N=C(N)N)oc2Cl)cc(OCC=C(C)C)c1O [Compound I-50]	0.31	0.16	0.26	0.13	256 µg/mL	256 µg/mL	256 µg/mL	256 µg/mL
256 µg/mL (≈ 608 µM)	256 µg/mL (≈ 608 µM)	256 µg/mL (≈ 608 µM)	256 µg/mL (≈ 608 µM)	NC(N)=Nc1nc(-c2cccc3c2C(F)(F)c2cc(Br)ccc2-3)cs1 [Compound I-115]	1.25	1.25	1.25	1.25				
64 µg/mL (≈ 166 µM)	128 µg/mL (≈ 331 µM)	128 µg/mL (≈ 331 µM)	256 µg/mL (≈ 662 µM)	CC(C)(C)c1cc(-c2csc(NC3=NCCCN3)n2)cc(C(C)(C)C)c1O [Compound I-163]	0.04	0.19	0.04	0.38				
				NC(N)=Nc1nc(-c2cccc(Oc3ccc(N4CCOCC4)cc3)c2)cs1 [Compound I-105]	0.51	1.25	1.25	1.25	256 µg/mL	256 µg/mL	256 µg/mL	256 µg/mL
				NC(N)=Nc1nc(-c2cc(F)cc(Oc3ccc(Cl)cc3Cl)c2)cs1 [Compound I-100]	0.18	0.13	0.15	0.02	256 µg/mL	256 µg/mL	128 µg/mL	256 µg/mL
				Ic1ccc(-c2csc(N=C3NCCCN3)n2)cc1 [Compound I-181]	1.25	0.19	0.52	0.13	256 µg/mL	256 µg/mL	256 µg/mL	256 µg/mL
